In ChEMBL document CHEMBL4680240, “Tail approach synthesis of novel benzenesulfonamides incorporating 1,3,4-oxadiazole hybrids as potent inhibitor of carbonic anhydrase I, II, IX, and XII isoenzymes” (Eur J Med Chem, 2020):
pKi: −log10 of the molar value.

How the values were obtained:
Carbonic anhydrase 1 = Carbonic anhydrase 1 (Homo sapiens, UniProt P00915); assay: Inhibition of recombinant human carbonic anhydrase 1 incubated for 10 mins prior to testing measured for 5 to 10 secs by phenol red-based stopped-flow CO2 hydration assay
Carbonic anhydrase 2 = Carbonic anhydrase 2 (Homo sapiens, UniProt P00918); assay: Inhibition of recombinant human carbonic anhydrase 2 incubated for 10 mins prior to testing measured for 5 to 10 secs by phenol red-based stopped-flow CO2 hydration assay
Carbonic anhydrase 9 = Carbonic anhydrase 9 (Homo sapiens, UniProt Q16790); assay: Inhibition of recombinant human carbonic anhydrase 9 incubated for 10 mins prior to testing measured for 5 to 10 secs by phenol red-based stopped-flow CO2 hydration assay
Carbonic anhydrase 12 = Carbonic anhydrase 12 (Homo sapiens, UniProt O43570); assay: Inhibition of recombinant human carbonic anhydrase 12 incubated for 10 mins prior to testing measured for 5 to 10 secs by phenol red-based stopped-flow CO2 hydration assay
Chain of Carbonic anhydrase 12 (O43570 whole entry): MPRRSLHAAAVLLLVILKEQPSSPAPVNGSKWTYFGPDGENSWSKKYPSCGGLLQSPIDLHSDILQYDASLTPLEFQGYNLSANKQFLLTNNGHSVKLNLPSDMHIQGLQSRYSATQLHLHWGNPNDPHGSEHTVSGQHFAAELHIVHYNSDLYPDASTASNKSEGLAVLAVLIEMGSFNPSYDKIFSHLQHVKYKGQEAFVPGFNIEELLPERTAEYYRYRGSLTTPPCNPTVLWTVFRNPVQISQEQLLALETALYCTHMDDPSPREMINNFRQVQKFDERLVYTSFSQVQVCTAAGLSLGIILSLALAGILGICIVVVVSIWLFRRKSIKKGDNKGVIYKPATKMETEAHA

Chain of Carbonic anhydrase 1 (P00915 whole entry): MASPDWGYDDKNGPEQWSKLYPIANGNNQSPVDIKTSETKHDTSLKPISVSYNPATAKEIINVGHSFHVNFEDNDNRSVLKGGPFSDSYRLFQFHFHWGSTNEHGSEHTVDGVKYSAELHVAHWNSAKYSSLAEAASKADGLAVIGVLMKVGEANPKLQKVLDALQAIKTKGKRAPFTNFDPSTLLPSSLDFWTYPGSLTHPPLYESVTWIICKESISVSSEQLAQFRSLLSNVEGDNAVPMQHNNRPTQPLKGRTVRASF

## NS(=O)(=O)c1ccc(-c2nnc(SCC(=O)c3cccc(Cl)c3)o2)cc1
Carbonic anhydrase 1
  pKi: 6.26
Carbonic anhydrase 2
  pKi: 7.23
Carbonic anhydrase 9
  pKi: 5.90
Carbonic anhydrase 12
  pKi: 6.42

## NS(=O)(=O)c1ccc(-c2nnc(SCC(=O)Nc3ccccc3)o2)cc1
Carbonic anhydrase 1
  pKi: 6.27
Carbonic anhydrase 2
  pKi: 7.21
Carbonic anhydrase 9
  pKi: 6.95
Carbonic anhydrase 12
  pKi: 6.44

## COc1cccc(NC(=O)CSc2nnc(-c3ccc(S(N)(=O)=O)cc3)o2)c1
Carbonic anhydrase 1
  pKi: 6.17
Carbonic anhydrase 2
  pKi: 7.16
Carbonic anhydrase 9
  pKi: 7.27
Carbonic anhydrase 12
  pKi: 6.16

## COc1cccc(C(=O)CSc2nnc(-c3ccc(S(N)(=O)=O)cc3)o2)c1
Carbonic anhydrase 1
  pKi: 6.33
Carbonic anhydrase 2
  pKi: 7.10
Carbonic anhydrase 9
  pKi: 5.88
Carbonic anhydrase 12
  pKi: 6.31

## NS(=O)(=O)c1ccc(-c2nnc(SCC(=O)c3ccc(F)cc3)o2)cc1
Carbonic anhydrase 1
  pKi: 6.13
Carbonic anhydrase 2
  pKi: 7.16
Carbonic anhydrase 9
  pKi: 5.70
Carbonic anhydrase 12
  pKi: 5.65

## NS(=O)(=O)c1ccc(-c2nnc(SCC(=O)c3ccc(Br)cc3)o2)cc1
Carbonic anhydrase 1
  pKi: 6.21
Carbonic anhydrase 2
  pKi: 7.17
Carbonic anhydrase 9
  pKi: 5.76
Carbonic anhydrase 12
  pKi: 6.20

## NS(=O)(=O)c1ccc(-c2nnc(SCC(=O)Nc3ccc(Br)cc3)o2)cc1
Carbonic anhydrase 1
  pKi: 5.41
Carbonic anhydrase 2
  pKi: 6.07
Carbonic anhydrase 9
  pKi: 6.17
Carbonic anhydrase 12
  pKi: 6.12

## NS(=O)(=O)c1ccc(-c2nnc(SCC(=O)Nc3ccc([N+](=O)[O-])cc3)o2)cc1
Carbonic anhydrase 1
  pKi: 6.12
Carbonic anhydrase 2
  pKi: 7.14
Carbonic anhydrase 9
  pKi: 6.59
Carbonic anhydrase 12
  pKi: 6.13

## NS(=O)(=O)c1ccc(-c2nnc(SCC(=O)c3ccccc3)o2)cc1
Carbonic anhydrase 1
  pKi: 5.87
Carbonic anhydrase 2
  pKi: 6.46
Carbonic anhydrase 9
  pKi: 6.12
Carbonic anhydrase 12
  pKi: 6.58

## NS(=O)(=O)c1ccc(-c2nnc(SCC(=O)Nc3ccc(F)cc3)o2)cc1
Carbonic anhydrase 1
  pKi: 6.15
Carbonic anhydrase 2
  pKi: 7.07
Carbonic anhydrase 9
  pKi: 6.79
Carbonic anhydrase 12
  pKi: 6.23

## COc1ccc(NC(=O)CSc2nnc(-c3ccc(S(N)(=O)=O)cc3)o2)cc1
Carbonic anhydrase 1
  pKi: 5.53
Carbonic anhydrase 2
  pKi: 7.27
Carbonic anhydrase 9
  pKi: 7.54
Carbonic anhydrase 12
  pKi: 6.57

## NS(=O)(=O)c1ccc(-c2nnc(SCC(=O)Nc3cccc(Cl)c3)o2)cc1
Carbonic anhydrase 1
  pKi: 6.30
Carbonic anhydrase 2
  pKi: 7.09
Carbonic anhydrase 9
  pKi: 7.29
Carbonic anhydrase 12
  pKi: 6.40

## Cc1ccc(NC(=O)CSc2nnc(-c3ccc(S(N)(=O)=O)cc3)o2)cc1
Carbonic anhydrase 1
  pKi: 6.13
Carbonic anhydrase 2
  pKi: 7.10
Carbonic anhydrase 9
  pKi: 7.13
Carbonic anhydrase 12
  pKi: 6.58

## COc1ccc(C(=O)CSc2nnc(-c3ccc(S(N)(=O)=O)cc3)o2)cc1
Carbonic anhydrase 1
  pKi: 5.42
Carbonic anhydrase 2
  pKi: 6.80
Carbonic anhydrase 9
  pKi: 6.35
Carbonic anhydrase 12
  pKi: 5.44

## NS(=O)(=O)c1ccc(-c2nnc(SCC(=O)c3ccc(Cl)cc3)o2)cc1
Carbonic anhydrase 1
  pKi: 6.23
Carbonic anhydrase 2
  pKi: 7.17
Carbonic anhydrase 9
  pKi: 5.88
Carbonic anhydrase 12
  pKi: 6.08

## Cc1ccc(C(=O)CSc2nnc(-c3ccc(S(N)(=O)=O)cc3)o2)cc1
Carbonic anhydrase 1
  pKi: 5.48
Carbonic anhydrase 2
  pKi: 6.83
Carbonic anhydrase 9
  pKi: 6.70
Carbonic anhydrase 12
  pKi: 6.64

## NS(=O)(=O)c1ccc(-c2nnc(SCC(=O)c3cccc([N+](=O)[O-])c3)o2)cc1
Carbonic anhydrase 1
  pKi: 6.17
Carbonic anhydrase 2
  pKi: 7.23
Carbonic anhydrase 9
  pKi: 6.25
Carbonic anhydrase 12
  pKi: 6.24

## NS(=O)(=O)c1ccc(-c2nnc(SCC(=O)Nc3ccc(Cl)cc3)o2)cc1
Carbonic anhydrase 1
  pKi: 5.68
Carbonic anhydrase 2
  pKi: 7.02
Carbonic anhydrase 9
  pKi: 6.12
Carbonic anhydrase 12
  pKi: 6.08

## NS(=O)(=O)c1ccc(-c2nnc(SCC(=O)c3ccc([N+](=O)[O-])cc3)o2)cc1
Carbonic anhydrase 1
  pKi: 7.15
Carbonic anhydrase 2
  pKi: 7.53
Carbonic anhydrase 9
  pKi: 6.20
Carbonic anhydrase 12
  pKi: 6.53

## NS(=O)(=O)c1ccc(-c2nnc(SCC(=O)Nc3cccc([N+](=O)[O-])c3)o2)cc1
Carbonic anhydrase 1
  pKi: 7.14
Carbonic anhydrase 2
  pKi: 8.10
Carbonic anhydrase 9
  pKi: 7.79
Carbonic anhydrase 12
  pKi: 6.59
